Like-named read-outs stand apart in the source and are kept apart here.
Molecular target: recombinant eIF4E (Homo sapiens (Human), UniProt P06730)
Test: Fluorescence polarization competition assay for eIF4E binding potency
Outline: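 IC50 values reflect 50% displacement of 20 nM EDA-m7GDP-ATTO-550 from 75 nM eIF4E, measured by fluorescence polarization after 30 min at room temperature. Buffer: 20 mM Tris pH 7.5, 100 mM NaCl, 1 mM DTT, 0.02% Tween-20; 1% DMSO.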

[1] = fluorescence polarization competition, 75 nM recombinant eIF4E, 20 nM EDA-m7GDP-ATTO-550, IC50 class, read-out: elF4E FP
[2] = inhibition of eIF4E/EDA-m7GDP-ATTO-550 binding by 50%, Table 4B calculated values, read-out: IC50

recombinant eIF4E, sequence (P06730 whole entry): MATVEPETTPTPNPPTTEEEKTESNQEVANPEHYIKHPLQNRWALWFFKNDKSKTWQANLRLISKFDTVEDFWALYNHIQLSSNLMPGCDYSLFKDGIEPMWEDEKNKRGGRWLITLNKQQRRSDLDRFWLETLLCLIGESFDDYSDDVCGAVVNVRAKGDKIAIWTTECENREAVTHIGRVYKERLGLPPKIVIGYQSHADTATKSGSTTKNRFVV

IC50 [1] [µM]	IC50 [2] [µM]	Compound
< 0.05	0.00717	Cc1cc(-c2cc(Cl)ccc2OCCn2c(C)nc3cc(C(F)(F)F)c(-c4ccncc4C)nc3c2=O)c2scc(C(=O)O)c2n1 [compound 436]
< 0.05	0.00621	Cc1cc(-c2cc(Cl)ccc2OCCn2c(C)nc3cc(C(F)(F)F)c(-c4cnc(C)nc4C)c(C#N)c3c2=O)c2scc(C(=O)O)c2n1 [compound 437]
< 0.05	0.00499	Cc1cc(-c2cc(Cl)ccc2OCCn2c(C)nc3cc(C(F)F)c(-c4cccnc4C)c(C#N)c3c2=O)c2scc(C(=O)O)c2n1 [compound 440]
< 0.05	0.0177	Cc1cc(-c2c(C(F)(F)F)cc3nc(C)n(CCOc4ccc(Cl)cc4-c4cc(C)nc5c(C(=O)O)csc45)c(=O)c3c2C#N)cnn1 [compound 442]
< 0.05	0.0308	Cc1nc2cc(C(F)(F)F)cc(C#N)c2c(=O)n1CCOc1ccc(Cl)cc1-c1cc(Cl)nc2c(C(=O)O)csc12 [compound 444]
0.05 to 1	–	Cc1nc2cc(C(F)(F)F)cc(C#N)c2c(=O)n1CCOc1ccc(Cl)cc1-c1cc(C(N)=O)nc2c(C(=O)O)csc12 [compound 445]
< 0.05	0.00615	Cc1cc(-c2cc(Cl)ccc2OCCn2c(C)nc3cc(C(F)(F)F)c(-c4cccnc4)nc3c2=O)c2scc(C(=O)O)c2n1 [compound 461]
< 0.05	0.0105	Cc1cc(-c2cc(Cl)ccc2OCCn2c(C)nc3cc(C(F)(F)F)c(-c4ccccn4)nc3c2=O)c2scc(C(=O)O)c2n1 [compound 462]
< 0.05	0.00886	Cc1cc(-c2nc3c(=O)n(CCOc4ccc(Cl)cc4-c4cc(C)nc5c(C(=O)O)csc45)c(C)nc3cc2C(F)(F)F)ccn1 [compound 463]
< 0.05	0.0214	Cc1cc(-c2cc(Cl)ccc2OCCn2c(C)nc3cc(C(F)(F)F)c(-c4ccncc4)nc3c2=O)c2scc(C(=O)O)c2n1 [compound 464]
< 0.05	0.0151	Cc1cc(-c2c(C(F)(F)F)cc3nc(C)n(CCOc4ccc(Cl)cc4-c4cc(C)nc5c(C(=O)O)csc45)c(=O)c3c2C#N)cc(C)n1 [compound 465]
< 0.05	0.0093	CCc1ncccc1-c1c(C(F)(F)F)cc2nc(C)n(CCOc3ccc(Cl)cc3-c3cc(C)nc4c(C(=O)O)csc34)c(=O)c2c1C#N [compound 466]
< 0.05	–	Cc1cc(-c2cc(Cl)ccc2OCCn2c(C)nc3cc(C(F)(F)F)c(-c4ccccc4)nc3c2=O)c2scc(C(=O)O)c2n1 [compound 467]
< 0.05	0.00436	CCc1cc(-c2c(C(F)(F)F)cc3nc(C)n(CCOc4ccc(Cl)cc4-c4cc(C)nc5c(C(=O)O)csc45)c(=O)c3c2C#N)ccn1 [compound 468]
< 0.05	0.00225	Cc1cc(-c2c(C(F)(F)F)cc3nc(C)n(CCOc4ccc(Cl)cc4-c4cc(C)nc5c(C(=O)O)csc45)c(=O)c3c2C#N)c(C)cn1 [compound 469]
< 0.05	0.0288	Cc1cc(-c2c(C(F)(F)F)cc3nc(C)n(CCOc4ccc(Cl)cc4-c4cc(C)nc5c(C(=O)O)csc45)c(=O)c3c2C#N)c(F)cn1 [compound 471]
< 0.05	0.0236	Cc1cc(-c2cc(Cl)ccc2OCCn2c(C)nc3cc(C(F)(F)F)c(-c4ccnc(C)c4F)c(C#N)c3c2=O)c2scc(C(=O)O)c2n1 [compound 472]
< 0.05	0.0145	Cc1cc(-c2cc(Cl)ccc2OCCn2c(C)nc3cc(C(F)(F)F)c(Cc4ncccc4F)c(C#N)c3c2=O)c2scc(C(=O)O)c2n1 [compound 473]
< 0.05	0.0135	Cc1cc(-c2cc(Cl)ccc2OCCn2c(C)nc3c(C)nc(-c4ccc(F)cc4)c(C#N)c3c2=O)c2scc(C(=O)O)c2n1 [compound 474]
< 0.05	0.017	Cc1cc(-c2cc(Cl)ccc2OCCn2c(C)nc3c(C)nc(-c4cccc(F)c4)c(C#N)c3c2=O)c2scc(C(=O)O)c2n1 [compound 475]
< 0.05	0.0339	Cc1cc(-c2cc(Cl)ccc2OCCn2c(C)nc3c(C)nc(-c4ccccc4F)c(C#N)c3c2=O)c2scc(C(=O)O)c2n1 [compound 476]
< 0.05	–	Cc1ccc(-c2nc(C)c3nc(C)n(CCOc4ccc(Cl)cc4-c4cc(C)nc5c(C(=O)O)csc45)c(=O)c3c2C#N)cc1 [compound 477]
< 0.05	–	Cc1cccc(-c2nc(C)c3nc(C)n(CCOc4ccc(Cl)cc4-c4cc(C)nc5c(C(=O)O)csc45)c(=O)c3c2C#N)c1 [compound 478]
< 0.05	–	Cc1cc(-c2cc(Cl)ccc2OCCn2c(C)nc3c(C)nc(-c4ccccc4C)c(C#N)c3c2=O)c2scc(C(=O)O)c2n1 [compound 479]
< 0.05	0.00739	Cc1cc(-c2cc(Cl)ccc2OCCn2c(C)nc3c(C)nc(-c4ccc(Cl)cc4)c(C#N)c3c2=O)c2scc(C(=O)O)c2n1 [compound 480]
< 0.05	0.0105	Cc1cc(-c2cc(Cl)ccc2OCCn2c(C)nc3c(C)nc(-c4cccc(Cl)c4)c(C#N)c3c2=O)c2scc(C(=O)O)c2n1 [compound 481]
< 0.05	–	Cc1cc(-c2cc(Cl)ccc2OCCn2c(C)nc3c(C)nc(-c4ccccc4Cl)c(C#N)c3c2=O)c2scc(C(=O)O)c2n1 [compound 482]
< 0.05	0.0116	Cc1nc2cc(C(F)(F)F)cc(C#N)c2c(=O)n1CCOc1ccc(Cl)cc1-c1cc(CO)nc2c(C(=O)O)csc12 [compound 484]
< 0.05	0.00859	Cc1cc(-c2cc(Cl)ccc2OCCn2c(C)nc3cc(C(F)(F)F)c(CN4CCN(C)CC4)c(C#N)c3c2=O)c2scc(C(=O)O)c2n1 [compound 485]

The next lines start with the molecule.

Compound	IC50 [1] [µM]	IC50 [2] [µM]
Cc1cc(-c2cc(Cl)ccc2OCCn2c(C)nc3cnc(N4CCC4)c(C#N)c3c2=O)c2scc(C(=O)O)c2n1 [compound 435]	< 0.05	0.0167
Cc1cc(-c2cc(Cl)ccc2OCCn2c(C)nc3cc(C(F)F)c(-c4cc(F)cnc4C)c(C#N)c3c2=O)c2scc(C(=O)O)c2n1 [compound 438]	< 0.05	0.00916
Cc1cc(-c2cc(Cl)ccc2OCCn2c(C)nc3c(C)nc(-c4cc(F)cnc4C)c(C#N)c3c2=O)c2scc(C(=O)O)c2n1 [compound 441]	< 0.05	0.0204
Cc1nc2cc(C(F)(F)F)cc(C#N)c2c(=O)n1CCOc1ccc(Cl)cc1-c1cc(C#N)nc2c(C(=O)O)csc12 [compound 446]	0.05 to 1	–
Cc1cc(-c2cc(Cl)ccc2OCCn2c(C)nc3cc(C(F)(F)F)cc(C#N)c3c2=O)c2csc(C(=O)O)c2n1 [compound 447]	0.05 to 1	0.0848
Cc1nc(N2CCN(C)CC2)c(C#N)c2c(=O)n(CCOc3ccc(Cl)cc3-c3ccnc4c(C(=O)O)csc34)c(C)nc12 [compound 448]	< 0.05	0.0042
Cc1cc(-c2cc(Cl)ccc2C#CCn2c(C)nc3c(C)nc(N4CCN(C)CC4)c(C#N)c3c2=O)c2scc(C(=O)O)c2n1 [compound 450]	< 0.05	0.00784
Cc1cc(-c2cc(Cl)ccc2OCCn2c(C)nc3cc(CN(C)C)c(OC(F)F)c(C#N)c3c2=O)c2scc(C(=O)NS(C)(=O)=O)c2n1 [compound 451]	< 0.05	0.036
Cc1nc2cc(C(F)(F)F)cc(C#N)c2c(=O)n1CCOc1ccc(Cl)cc1-c1cc(CN)nc2c(C(=O)O)csc12 [compound 452]	< 0.05	0.0466
Cc1nc2cc(C(F)(F)F)cc(C#N)c2c(=O)n1CCOc1ccnnc1-c1ccnc2c(C(=O)O)csc12 [compound 453]	> 1	2.32
Cc1nc2cc(C(F)(F)F)cc(C#N)c2c(=O)n1CCOc1cnc(Cl)nc1-c1ccnc2c(C(=O)O)csc12 [compound 454]	0.05 to 1	0.0511
Cc1nc2cc(C(F)(F)F)cc(C#N)c2c(=O)n1CCOc1cnc(C#N)nc1-c1ccnc2c(C(=O)O)csc12 [compound 455]	0.05 to 1	0.473
Cc1nc2cc(OC(F)(F)F)cc(C#N)c2c(=O)n1CCOc1ccc(Cl)cc1-c1ccnc2c(C(=O)O)csc12 [compound 456]	< 0.05	0.0109
Cc1nc2ccc(OCCN(C)C)c(C#N)c2c(=O)n1CCOc1ccc(Cl)cc1-c1ccnc2c(C(=O)O)csc12 [compound 457]	< 0.05	0.0112
Cc1nc2cc(CN(C)C)c(OC(F)F)c(C#N)c2c(=O)n1CCOc1ccc(Cl)cc1-c1ccnc2c(C(=O)O)csc12 [compound 458]	< 0.05	0.0368
Cc1cc(-c2cc(Cl)ccc2OCCn2c(C)nc3c(CN4CCN(C)CC4)c(C(F)(F)F)cc(C#N)c3c2=O)c2scc(C(=O)O)c2n1 [compound 483]	< 0.05	0.0421
Cc1cc(-c2cc(Cl)ccc2OCCn2c(C)nc3c(F)cc(C(F)F)c(C#N)c3c2=O)c2scc(S(=O)(=O)O)c2n1 [compound 488]	< 0.05	–
COCc1cc(-c2cc(Cl)ccc2OCCn2c(C)nc3cc(C(F)(F)F)c(CN4CCN(C)CC4)c(C#N)c3c2=O)c2scc(C(=O)O)c2n1 [compound 489]	< 0.05	–
Cc1cc(-c2cc(Cl)ccc2OCCn2c(C)nc3c(F)cc(C(F)F)c(C#N)c3c2=O)c2cccc(C(=O)O)c2n1 [compound 490]	0.05 to 1	–
Cc1cc(-c2cc(Cl)ccc2OCCn2c(C)nc3c(C(C)C)ncc(C#N)c3c2=O)c2scc(C(=O)O)c2n1 [compound 491]	< 0.05	0.0229
Cc1cc(-c2cc(Cl)ccc2OCCn2c(C)nc3c(C)nc(C)c(C#N)c3c2=O)c2scc(C(=O)O)c2n1 [compound 492]	< 0.05	0.0297
Cc1nc2cc(Cl)c(S(C)(=O)=O)c(C#N)c2c(=O)n1CCOc1ccc(Cl)cc1-c1ccnc2c(C(=O)O)csc12 [compound 493]	0.05 to 1	0.0942
Cc1nc2cc(C(F)(F)F)c(CC3CN(CC(F)(F)F)C3)c(C#N)c2c(=O)n1CCOc1ccc(Cl)cc1-c1ccnc2c(C(=O)O)csc12 [compound 494]	0.05 to 1	0.0856

From patent US11286268B1, “EIF4E-inhibiting compounds and methods” (EFFECTOR THERAPEUTICS, INC., priority 2019, dated 2022)
